Test results reported in patent publication US8138188B2, “Melanocortin type 4 receptor agonist piperidinoylpyrrolidines” (Pfizer Inc., priority 2006, dated 2012).

Tests used:
[1] = target: T1, human MC3 receptor (Homo sapiens, UniProt P41968); assay: In vitro agonist potency (EC50) against melanocortin receptor type 3, cAMP in recombinant cell line; format: cell-based; settings: cell line stably transfected with human MC3, 1 hour at 37° C.
T1 construct: stably transfected with full length cDNA encoding human MC1 or MC3 receptors; expressed in transfected cells; host or cells: Chinese hamster ovary cell line (MC3; 'respectively')
Experimental: Measurement of In Vitro Agonist Potency (EC50) of Compounds Against Melanocortin Receptors Type 1 and 3 (MC1 and MC3).
Activation of melanocortin (MC) receptors by agonists results in activation of intracellular adenylate cyclase enzymes that synthesise the second messenger signalling molecule, adenosine 3′,5′-cyclic monophosphate (cAMP). Changes in cAMP levels following treatment of recombinant MC1 and MC3 cell lines with test compound were measured and an MC1 and MC3 potency estimate (EC50) calculated as follows: […]
Human embryonic kidney (HEK) or Chinese hamster ovary cell lines stably transfected with full length cDNA encoding human MC1 or MC3 receptors, respectively, were established using standard molecular biology methods. Test compounds were dissolved in dimethyl sulfoxide (DMSO) at 4 mM. 11 point half log unit increment dilution series of test compound, typically starting at 50 uM were prepared in a buffer comprised of phosphate buffered saline (PBS), 2.5% DMSO and 0.05% pluronic F-127 surfactant. Freshly cultured cells at 80-90% confluence were harvested and re-suspended in Dulbecco's Modified Eagle's Medium (DMEM). Cells (10,000 for MC3, 20,000 for MC1) were added to the test compound dilution series in a 384 well assay plate and incubated for 1 hour at 37° C. The relative cAMP concentration in each well was then measured using a β-galactosidase enzyme fragment complementation method purchased in kit form as the Discoverx cAMP II kit from GE Healthcare/Amersham Biosciences UK. In the case of MC1,3-Isobutyl-1-methylxanthine (IBMX) at a concentration of 750 μM was included in DMEM as the cells were re-suspended for assay. […] Sigmoidal curves were fitted to plots of log10 inhibitor concentration vs percent effect using a custom made software application called SIGHTS and EC50 estimates determined by the software as the concentration of test compound giving an effect half way between the bottom and top assymptopes of the sigmoidal dose response curve. Each experiment included an EC50 determination for alpha melanocyte stimulating hormone, which was used as a standard to track assay consistency and allow fair comparison between EC50 estimates obtained in different experiments.

[2] = target: T2, MC4 receptor (MC4R) (Homo sapiens, UniProt P32245); assay: AGRP inhibition: competition binding vs [125I]AGRP(87-132) at CHO-CRE MC4R cell membranes; settings: vs 0.3 nM [125I]AGRP(87-132)
T2 construct: expressed in transfected cells; host or cells: CHO-CRE MC4R cells (membranes)
From the text: Agouti related protein (AGRP) is a high affinity endogenous antagonist/inverse agonist for the MC4 receptor (Lu et al., 1994, Nature 371: 799-802; Oilman et al., 1997, Science 278: 135-138). […] It has been ascertained that this C-terminal fragment of AGRP contains the MC4R binding determinants (Yang et al., 1999, Mol Endocrinol 13: 148-155), therefore, compounds can be evaluated for their ability to inhibit AGRP binding to membranes from cells expressing the MC4R using a competition binding assay versus [^125I]AGRP(87-132). To this end cells expressing the MC4R were subject to homogenisation and the membrane fragment isolated by differential centrifugation. CHO-CRE MC4R cell membranes (12 μg protein) were incubated with 0.3 nM [^125I]AGRP(87-132) and 11 half-log concentrations of competitor ligand, in duplicate, in a total volume of 100 μl buffer (25 mM HEPES, 1 mM MgCl2, 2.5 mM CaCl2, 0.5% BSA pH 7.0). Non-specific binding was determined by the inclusion of 1 μM SHU9119. The reaction was initiated by the addition of membranes and plates were incubated at room temperature for 2 hours. The reaction was terminated by rapid filtration onto GF/C filters (presoaked in 1% PEI) using a vacuum harvester followed by five 200 μl washes of ice cold wash buffer (Binding buffer containing 500 mM NaCl). The filters were soaked in 50 μl scintillation fluid and the amount of radioactivity present was determined by liquid scintillation counting. Ki values were determined by data analysis using appropriate software.

T1 sequence (P41968 whole entry): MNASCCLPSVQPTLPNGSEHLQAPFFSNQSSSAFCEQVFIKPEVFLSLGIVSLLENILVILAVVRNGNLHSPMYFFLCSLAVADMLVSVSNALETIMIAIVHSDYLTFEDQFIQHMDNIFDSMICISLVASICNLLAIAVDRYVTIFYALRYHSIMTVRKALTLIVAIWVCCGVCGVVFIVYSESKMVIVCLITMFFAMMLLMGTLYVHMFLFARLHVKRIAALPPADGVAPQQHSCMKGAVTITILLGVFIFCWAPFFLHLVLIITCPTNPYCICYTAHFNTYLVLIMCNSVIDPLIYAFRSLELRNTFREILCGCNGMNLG
T2 sequence (P32245 whole entry): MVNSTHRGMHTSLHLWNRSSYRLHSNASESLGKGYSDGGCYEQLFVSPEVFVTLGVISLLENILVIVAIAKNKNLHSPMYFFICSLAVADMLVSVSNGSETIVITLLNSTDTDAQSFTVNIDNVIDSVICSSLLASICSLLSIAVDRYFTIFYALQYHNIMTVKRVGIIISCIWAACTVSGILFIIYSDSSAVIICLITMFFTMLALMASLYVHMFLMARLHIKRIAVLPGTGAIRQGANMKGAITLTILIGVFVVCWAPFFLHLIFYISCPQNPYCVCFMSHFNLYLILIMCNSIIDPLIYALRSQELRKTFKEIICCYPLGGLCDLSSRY

| SMILES | EC50 [1] [µM] | Ki [2] [µM] |
| --- | --- | --- |
| C[C@@H]1CN(C(=O)[C@@H]2CN(c3ccc(C#N)cn3)C[C@H]2c2ccc(Cl)cn2)C[C@H](C)[C@@]1(O)c1ccc(F)cc1 [Example 1, 6-[(3S,4S)-3-(5-Chloropyridin-2-yl)-4-{[(3R,4R,5S)-4-(4-fluorophenyl)-4-hydroxy-3,5-dimethylpiperidin-1-yl]carbonyl}pyrrolidin-1-yl]nicotinonitrile] | 0.0439 | 0.039 |
| C[C@@H]1CN(C(=O)[C@@H]2CN(c3ccc(C#N)nn3)C[C@H]2c2ccc(Cl)cn2)C[C@H](C)[C@@]1(O)c1ccc(F)cc1 [Example 2, 6-[(3S,4S)-3-(5-Chloropyridin-2-yl)-4-{[(3R,4R,5S)-4-(4-fluorophenyl)-4-hydroxy-3,5-dimethylpiperidin-1-yl]carbonyl}pyrrolidin-1-yl]pyridazine-3-carbonitrile] | 0.00426 | 0.059 |
| COc1ccc(N2C[C@@H](C(=O)N3C[C@@H](C)[C@](O)(c4ccc(F)cc4)[C@@H](C)C3)[C@H](c3ccc(Cl)cn3)C2)nn1 [Example 4, (3R,4R,5S)-1-{[(3S,4S)-4-(5-chloropyridin-2-yl)-1-(6-methoxypyridazin-3-yl)pyrrolidin-3-yl]carbonyl}-4-(4-fluorophenyl)-3,5-dimethylpiperidin-4-ol] | 0.0559 | 0.051 |
| C[C@@H]1CN(C(=O)[C@@H]2CN(c3ccc(Cl)nn3)C[C@H]2c2ccc(F)cn2)C[C@H](C)[C@@]1(O)c1ccc(Cl)cc1 [Example 5, (3R,4R,5S)-4-(4-chlorophenyl)-1-{[(3S,4S)-1-(6-chloropyridazin-3-yl)-4-(5-fluoropyridin-2-yl)pyrrolidin-3-yl]carbonyl}-3,5-dimethylpiperidin-4-ol] | 0.203 | 0.552 |
| C[C@@H]1CN(C(=O)[C@@H]2CN(c3ccc(=O)[nH]n3)C[C@H]2c2ccc(F)cn2)C[C@H](C)[C@@]1(O)c1ccc(Cl)cc1 [Example 6, 6-[(3S,4S)-3-{[(3R,4R,5S)-4-(4-chlorophenyl)-4-hydroxy-3,5-dimethylpiperidin-1-yl]carbonyl}-4-(5-fluoropyridin-2-yl)pyrrolidin-1-yl]pyridazin-3(2H)-one] | 1.46 | 0.456 |
| C[C@@H]1CN(C(=O)[C@@H]2CN(c3cncc(F)c3)C[C@H]2c2ccc(Cl)cn2)C[C@H](C)[C@@]1(O)c1ccccn1 [Example 8, (3R,4R,5S)-1-{[(3S,4S)-4-(5-chloropyridin-2-yl)-1-(5-fluoropyridin-3-yl)pyrrolidin-3-yl]carbonyl}-3,5-dimethyl-4-pyridin-2-ylpiperidin-4-ol] | 1.09 | 0.643 |
| C[C@@H]1CN(C(=O)[C@@H]2CN(c3cccnn3)C[C@H]2c2ccc(Cl)cn2)C[C@H](C)[C@@]1(O)c1ccccn1 [Example 9, (3R,4R,5S)-1-{[(3S,4S)-4-(5-chloropyridin-2-yl)-1-pyridazin-3-ylpyrrolidin-3-yl]carbonyl}-3,5-dimethyl-4-pyridin-2-ylpiperidin-4-ol] | 0.52 | 0.523 |
| COc1ccc(C2CN(c3ccc(C#N)nn3)CC2C(=O)N2CC(C)C(O)(c3ccc(F)cc3)C(C)C2)cn1 (centres unmarked) [Example 16] | 0.323 | 0.251 |
| CC1CN(C(=O)C2CN(c3cncc(F)c3)CC2c2ccc(Cl)cn2)CC(C)C1(O)c1ccc(F)cc1 (centres unmarked) [Example 25] | 0.189 | 0.278 |
| CC1CN(C(=O)C2CN(c3ccc(=O)[nH]n3)CC2c2ccc(Cl)cn2)CC(C)C1(O)c1ccccc1 (centres unmarked) [Example 27] | 0.39 | 0.1 |
| C[C@@H]1CN(C(=O)[C@@H]2CN(c3ccc(=O)[nH]n3)C[C@H]2c2ccc(Cl)cn2)C[C@H](C)[C@@]1(O)c1ccccn1 [Example 28] | 0.938 | 0.516 |
| CC1CN(C(=O)C2CN(c3ccc(C#N)nn3)CC2c2ccc(Cl)cn2)CC(C)C1(O)c1ccccn1 (centres unmarked) [Example 30] | 0.0615 | 0.112 |
| C[C@@H]1CN(C(=O)[C@@H]2CN(c3ccc(Cl)nn3)C[C@H]2c2ccc(Cl)cn2)C[C@H](C)[C@@]1(O)c1ccccn1 [Example 31] | 0.41 | 0.526 |
| C[C@@H]1CN(C(=O)[C@@H]2CN(c3ccc(C#N)nn3)C[C@H]2c2ccc(F)cn2)C[C@H](C)[C@@]1(O)c1ccc(Cl)cc1 [Example 32] | 0.0766 | 0.16 |
| CC1CN(C(=O)C2CN(c3ccc(C#N)nn3)CC2c2ccc(F)cn2)CC(C)C1(O)c1ccccc1 (centres unmarked) [Example 33] | 0.193 | 0.22 |
| C[C@@H]1CN(C(=O)[C@@H]2CN(c3ccc(Cl)nn3)C[C@H]2c2ccc(F)cn2)C[C@H](C)[C@@]1(O)c1ccccc1 [Example 35] | 0.878 | 0.386 |
| CC1CN(C(=O)C2CN(c3ccc(=O)[nH]n3)CC2c2ccc(F)cn2)CC(C)C1(O)c1ccccc1 (centres unmarked) [Example 37] | 0.325 | 0.422 |
| CC1CN(C(=O)C2CN(c3ccc(=O)n(C)n3)CC2c2ccc(F)cn2)CC(C)C1(O)c1ccc(F)cc1 (centres unmarked) [Example 40] | 0.58 | 0.43 |
| COc1ccc([C@@H]2CN(c3ccc(=O)[nH]n3)C[C@H]2C(=O)N2C[C@@H](C)[C@](O)(c3ccc(Cl)cn3)[C@@H](C)C2)nc1 [Example 41] | > 33.3 | 3.75 |

Results, then the molecule that gave them:

| EC50 [1] [µM] | Ki [2] [µM] | SMILES |
| --- | --- | --- |
| 1.6 | 0.714 | C[C@@H]1CN(C(=O)[C@@H]2CN(c3ccc(=O)n(C)n3)C[C@H]2c2ccc(F)cn2)C[C@H](C)[C@@]1(O)c1ccc(Cl)cc1 [Example 7, 6-[(3S,4S)-3-{[(3R,4R,5S)-4-(4-chlorophenyl)-4-hydroxy-3,5-dimethylpiperidin-1-yl]carbonyl}-4-(5-fluoropyridin-2-yl)pyrrolidin-1-yl]-2-methylpyridazin-3(2H)-one] |
| 0.493 | 0.223 | C[C@@H]1CN(C(=O)[C@@H]2CN(c3ccc(=O)n(C)n3)C[C@H]2c2ccc(Cl)cn2)C[C@H](C)[C@@]1(O)c1ccc(Cl)cn1 [Example 10] |
| 0.0549 | 0.02 | C[C@@H]1CN(C(=O)[C@@H]2CN(c3ccc(=O)n(C)n3)C[C@H]2c2ccc(Cl)cn2)C[C@H](C)[C@@]1(O)C1CCCCC1 [Example 17] |
| > 8.52 | 0.965 | C[C@@H]1CN(C(=O)[C@@H]2CN(c3ccc(=O)n(C)n3)C[C@H]2c2ccc(Cl)cn2)C[C@H](C)[C@@]1(O)C1CC1 [Example 18] |
| 0.425 | 0.079 | CC1CN(C(=O)C2CN(c3ccc(=O)n(C)n3)CC2c2ccc(Cl)cn2)CC(C)C1(O)c1ccc(F)c(F)c1 (centres unmarked) [Example 19] |
| 1.12 | 0.253 | COc1ccc(C2(O)C(C)CN(C(=O)C3CN(c4ccc(=O)n(C)n4)CC3c3ccc(Cl)cn3)CC2C)cc1 (centres unmarked) [Example 20] |
| 0.283 | 0.066 | CC1CN(C(=O)C2CN(c3ccc(=O)n(C)n3)CC2c2ccc(Cl)cn2)CC(C)C1(O)c1ccccc1 (centres unmarked) [Example 21] |
| 1.05 | 5.96 | C[C@@H]1CN(C(=O)[C@@H]2CN(c3ccc(=O)n(C)n3)C[C@H]2c2ccc(Cl)cn2)C[C@H](C)[C@@]1(O)c1ccccn1 [Example 22] |
| 0.185 | 0.079 | CC1CN(C(=O)C2CN(c3ccc(=O)n(C)n3)CC2c2ccc(Cl)cn2)CC(C)C1(O)c1ccc(Cl)cc1 (centres unmarked) [Example 23] |
| 2.51 | > 0.955 | CC1CN(C(=O)C2CN(c3cncc(F)c3)CC2c2ccc(Cl)cn2)CC(C)C1(O)C1CC1 (centres unmarked) [Example 24] |
| 4.21 | 0.363 | COc1ccc(N2CC(C(=O)N3CC(C)C(O)(C4CC4)C(C)C3)C(c3ccc(Cl)cn3)C2)nn1 (centres unmarked) [Example 26] |
| 2.1 | 0.751 | CC1CN(C(=O)C2CN(c3ccc(=O)n(C)n3)CC2c2ccc(F)cn2)CC(C)C1(O)c1ccccc1 (centres unmarked) [Example 39] |
